Laboratory results as given in patent US9301952B2, “Diarylpyridine anti-viral compounds” (Kineta, Inc., priority 2010, dated 2016).
Read-outs that look alike come from different tables or passages of the source.

Legend:
[1] = system: HCV RNA; assay: Decrease of HCV RNA; assay type: cell-based, Hepatitis C virus
Experimental: KIN400 compounds are tested for in vitro antiviral activity against HCV 2A and influenza A virus (A/WSN/33). Viral protein and RNA levels are assessed following drug treatment using the assays described above.

[2] = system: HCV2a; assay: HCV focus-forming assay (FFA) / HCV IF antiviral assay; assay type: cell-based, Hepatitis C virus
Experimental: FIG. 1 is a graph of an HCV focus-forming assay. Huh7 cells were pre-treated with compound KIN400 for 24 hours and infected with HCV2a at an multiplicity of infection (MOI) of 0.5 for 48 hours. HCV protein was detected by immunofluorescent staining with viral-specific serum and foci were normalized to negative control cells that were not drug treated (equal to 1).
HCV IF antiviral assay. Huh7 cells are seeded on a 96 well plate at 5×10^3 cells per well and cells are allowed to attach and grow for 24 hours. Compounds that have been diluted to 10 uM in media and contain a final concentration of 0.5% DMSO are added to each well and grown another 24 hours. The compound media solution is removed from the plate and stored in a clean tissue culture dish. Cell monolayers are washed with PBS and HCV2a virus is added at the stated MOI. Virus is incubated for 2-4 hours and then removed, the monolayers are washed with PBS and the compound solutions are replaced into each well.
The cells are grown overnight and then cells are fixed and stained for HCV proteins. All buffers and reagents are used from the Cellomics staining kits described above. Primary serum PHS#72 is diluted 1:3,000 in wash buffer and incubated at room temperature 1 hour. […] The number of infected cells is counted and representative images are saved.

[3] = system: Influenza WSN strain; assay: microbe, parasite or virus in culture; details: Influenza A virus, A549, read-out: Influenza nucleoprotein (NP) ELISA (IC50)
[4] = system: Murine Encephalomyocarditis virus (EMCV); assay: EMCV antiviral assay (cell viability by MTS after infection); assay type: cell-based; details: Huh7 cells, EMCV 250 pfu
[5] = system: Influenza WSN strain
[6] = system: Huh7 cells; assay: MTS assay to determine cytotoxicity; assay type: cell-based, human
Experimental: (§1) MTS assay to determine cytotoxicity. Cultured human Huh7 cells are treated with increasing amounts of compound or equivalent amounts of DMSO diluted in media for 24 hours to see their effect on cell viability. The proportion of viable cells is calculated using a cell viability assay that measures conversion of a tetrazolium compound [[…]-5-(3-carboxymethoxyphenyl)-2-(4-sulfophenyl)-2H-tetrazolium, inner salt; MTS] to a colored formazan compound in live cells.
(§2) The conversion of MTS to formazan is detected in a 96-well microtiter plate reader, and the resulting optical densities can be plotted directly to estimate cell viability. […] Compounds were diluted to final concentrations of 0, 5, 10, 20, and 50 uM in media containing 0.5% DMSO. Negative control wells contain no compound and positive control for cytotoxicity is examined using an EMCV infection which causes 100% cytopathic effect. Each compound concentration and control is done in triplicate wells to generate error bars.

[7] = MTS assay to determine cytotoxicity; assay type: cell-based, human; details: human; Huh7 cells, 24 hours
Experimental: as §1, §2

[8] = system: IRF-3; assay: Activation of IRF-3; assay type: cell-based

## N#Cc1c(-c2ccccc2)cc(-c2ccccc2)nc1SCC(=O)N1CCOCC1 [KIN400]
[1]
  Decrease HCV RNA: Yes
[1]; listed as KIN100
  Decrease HCV RNA: decrease in HCV RNA
[2]; Hepatitis C virus, Huh-7, Huh7 cells
  IC50: 5.1 µM
[2]; Huh7 cells
  IC50: 5.1 µM
[3]
  IC50: 0.2 µM
[4]; 5 μM
  Cell viability post-infection: ~0.75
[4]; 10 μM
  Cell viability post-infection: ~0.95
[4]; 20 μM
  Cell viability post-infection: ~1.05
[5]
  Therapeutic index (TI) (CC50/IC50): > 10
[5]; listed as KIN100
  Therapeutic index (TI) (CC50/IC50): 250
[5]; influenza virus strain WSN
  antiviral activity against influenza virus (in words): antiviral activity against influenza virus
[6]
  CC50: > 50 µM
  cytotoxicity (in words): low cytotoxicity
[7]
  CC50 at 24 h: > 50 µM
[8]
  activation of IRF-3: activation of IRF-3
